molecular target: CDK2 (UniProt P24941); assay: Enzyme Assay; details: concentration not given here

SMILES | inhibition
O=S(=O)(Nc1ccc2[nH]nc(-c3ccc(O)cc3)c2c1)c1ccccc1 | 89%
O=C(NCc1ccc(S(=O)(=O)Nc2ccc3[nH]nc(-c4ccccc4)c3c2)s1)c1ccccc1 | 40%
O=S(=O)(Nc1ccc2[nH]nc(-c3ccccc3)c2c1)c1ccccc1C(F)(F)F | 81%
CS(=O)(=O)c1ccccc1S(=O)(=O)Nc1ccc2[nH]nc(N)c2c1 | 72%
Cc1cc2[nH]nc(-c3ccccc3)c2cc1NS(=O)(=O)c1ccccc1S(C)(=O)=O | 62%
O=S(=O)(Nc1ccc2[nH]nc(-c3ccccc3)c2c1)c1cccc2nonc12 | 67%
Cc1ccc(-c2n[nH]c3ccc(NS(=O)(=O)c4ccccc4S(C)(=O)=O)cc23)cc1F | 70%
C[Si](C)(C)C#Cc1cccc(-c2n[nH]c3ccc(NS(=O)(=O)c4ccccc4S(C)(=O)=O)cc23)c1 | 7%
CS(=O)(=O)c1ccccc1S(=O)(=O)Nc1ccc2[nH]nc(-c3nc4ccccc4[nH]3)c2c1 | 99%
CS(=O)(=O)c1ccccc1S(=O)(=O)Nc1ccc2[nH]nc(-c3cc(Cl)ccc3Cl)c2c1 | 27%
CS(=O)(=O)c1ccccc1S(=O)(=O)Nc1ccc2[nH]nc(-c3cccc(F)c3F)c2c1 | 50%
Cc1cccc(S(=O)(=O)Nc2ccc3[nH]nc(-c4ccccc4)c3c2)c1 | 72%
CS(=O)(=O)c1ccccc1S(=O)(=O)Nc1ccc2[nH]nc(-c3ccc[nH]3)c2c1 | 99%
O=S(=O)(Nc1ccc2[nH]nc(-c3ccccc3)c2c1)c1ccc(Cl)s1 | 65%
O=S(=O)(Nc1ccc2[nH]nc(-c3ccccc3)c2c1)c1ccc(F)c(F)c1 | 67%
CS(=O)(=O)c1ccccc1S(=O)(=O)Nc1ccc2[nH]nc(C#Cc3ccccc3)c2c1 | 90%

SMILES | inhibition
Cc1ccc(-c2n[nH]c3ccc(NS(=O)(=O)c4ccccc4S(C)(=O)=O)cc23)cc1C | 75%
CS(=O)(=O)c1ccccc1S(=O)(=O)Nc1ccc2[nH]nc(Nc3ccccc3)c2c1 | 100%
Cc1ccc(-c2n[nH]c3ccc(NS(=O)(=O)c4ccccc4S(C)(=O)=O)cc23)cc1N | 78%
COc1ccc(-c2n[nH]c3ccc(NS(=O)(=O)c4ccccc4S(C)(=O)=O)cc23)c(OC)c1OC | 21%
CN(C)c1cccc2c(S(=O)(=O)Nc3cccc(-c4n[nH]c5ccc(NS(=O)(=O)c6ccccc6S(C)(=O)=O)cc45)c3)cccc12 | 20%
CS(=O)(=O)c1ccccc1S(=O)(=O)Nc1ccc2[nH]nc(-c3ccc(Cl)c(Cl)c3)c2c1 | 66%
O=S(=O)(Nc1ccc2[nH]nc(-c3ccccc3)c2c1)c1cc(F)cc(F)c1 | 68%
CS(=O)(=O)c1ccccc1S(=O)(=O)Nc1ccc2[nH]nc(-c3cccc([N+](=O)[O-])c3)c2c1 | 82%
Nc1n[nH]c2ccc(NS(=O)(=O)c3cccc(F)c3)cc12 | 34%
CS(=O)(=O)c1ccccc1S(=O)(=O)Nc1ccc2[nH]nc(-c3cccc(Cl)c3Cl)c2c1 | 0%
Nc1n[nH]c2ccc(NS(=O)(=O)c3c(Cl)cccc3Cl)cc12 | 18%
CS(=O)(=O)c1ccc(S(=O)(=O)Nc2ccc3[nH]nc(-c4ccccc4)c3c2)cc1 | 50%
O=S(=O)(Nc1ccc2[nH]nc(-c3ccccc3)c2c1)c1ccccc1 | 84%
O=[N+]([O-])c1ccc(S(=O)(=O)Nc2ccc3[nH]nc(-c4ccccc4)c3c2)cc1 | 50%
O=S(=O)(Nc1ccc2[nH]nc(-c3ccccc3)c2c1)c1cccs1 | 80%

Results, then the compound that gave them:

inhibition | SMILES
66% | Cc1ccc(-c2n[nH]c3ccc(NS(=O)(=O)c4ccccc4S(C)(=O)=O)cc23)cc1
63% | CS(=O)(=O)c1ccccc1S(=O)(=O)Nc1ccc2[nH]nc(-c3cc4ccccc4s3)c2c1
41% | CS(=O)(=O)c1ccccc1S(=O)(=O)Nc1ccc2[nH]nc(-c3ccc(-c4ccccc4)cc3)c2c1
0% | CS(=O)(=O)c1ccccc1S(=O)(=O)Nc1ccc2[nH]nc(-c3ccc(-c4ccccc4)c(F)c3)c2c1
50% | COc1ccccc1-c1n[nH]c2ccc(NS(=O)(=O)c3ccccc3S(C)(=O)=O)cc12
73% | CS(=O)(=O)c1ccccc1S(=O)(=O)Nc1ccc2[nH]nc(-c3ccc(CO)cc3)c2c1
69% | CS(=O)(=O)c1ccccc1S(=O)(=O)Nc1ccc2[nH]nc(-c3cccc(F)c3)c2c1
61% | CS(=O)(=O)c1ccccc1S(=O)(=O)Nc1ccc2[nH]nc(-c3ccc(C(=O)O)cc3)c2c1
61% | CS(=O)(=O)c1ccccc1S(=O)(=O)Nc1ccc2[nH]nc(-c3ccc(OC(F)(F)F)cc3)c2c1
65% | CCc1ccc(-c2n[nH]c3ccc(NS(=O)(=O)c4ccccc4S(C)(=O)=O)cc23)cc1
71% | Cc1cccc(-c2n[nH]c3ccc(NS(=O)(=O)c4ccccc4S(C)(=O)=O)cc23)c1
84% | CSc1ccc(-c2n[nH]c3ccc(NS(=O)(=O)c4ccccc4S(C)(=O)=O)cc23)cc1
93% | CS(=O)(=O)c1ccccc1S(=O)(=O)Nc1ccc2[nH]nc(-c3cc4ccccc4o3)c2c1
81% | CN(C)c1ccc(-c2n[nH]c3ccc(NS(=O)(=O)c4ccccc4S(C)(=O)=O)cc23)cc1
61% | CS(=O)(=O)c1ccccc1S(=O)(=O)Nc1ccc2[nH]nc(-c3ccccc3F)c2c1
52% | CS(=O)(=O)c1ccccc1S(=O)(=O)Nc1ccc2[nH]nc(-c3ccccc3Cl)c2c1
77% | CCSc1ccc(-c2n[nH]c3ccc(NS(=O)(=O)c4ccccc4S(C)(=O)=O)cc23)cc1
74% | CCOc1ccc(-c2n[nH]c3ccc(NS(=O)(=O)c4ccccc4S(C)(=O)=O)cc23)cc1
90% | O=S(=O)(Nc1ccc2[nH]nc(-c3ccccc3)c2c1)c1cccc2ccccc12
88% | CS(=O)(=O)c1ccccc1S(=O)(=O)Nc1ccc2[nH]nc(-c3cccc(N)c3)c2c1
73% | CS(=O)(=O)c1ccccc1S(=O)(=O)Nc1ccc2[nH]nc(-c3cccc(Br)c3)c2c1
25% | Cc1ccccc1-c1n[nH]c2ccc(NS(=O)(=O)c3ccccc3S(C)(=O)=O)cc12
16% | CS(=O)(=O)c1ccccc1S(=O)(=O)Nc1ccc2[nH]nc(-c3ccc(OCc4ccccc4)cc3)c2c1
60% | CCOc1cccc(-c2n[nH]c3ccc(NS(=O)(=O)c4ccccc4S(C)(=O)=O)cc23)c1
85% | CS(=O)(=O)c1ccccc1S(=O)(=O)Nc1ccc2[nH]nc(-c3ccc(N)cc3)c2c1
87% | CS(=O)(=O)c1ccccc1S(=O)(=O)Nc1ccc2[nH]nc(-c3ccncc3)c2c1

Source: the Kinase Knowledgebase extract (Sharma et al. 2016)
